Assay results taken from patent publication US5190946A, “Methods and compounds” (Hoffmann-La Roche Inc., priority 1990, dated 1993).
Structures can show the parent of a compound that is named as a salt. Where two headings read alike, the source gives them in different places.

Assays:
[1] = system: P388/ADR cells; experiment: inhibition of P388/ADR cells in the presence of a subtoxic concentration of adriamycin (restoring drug sensitivity); type: cell-based, murine; conditions: Mus musculus
From the text: (§1) Such cancer cells are characterized by the fact that they are resistant to a large variety of anti-tumour agents and thus become extremely and increasingly difficult to treat. […] Such properties can be tested according to the method described in Br. J.

[2] = system: P388 murine leukemia cells; experiment: inhibition of growth rate of P388 cells; type: cell-based; conditions: Mus musculus
From the text: as §1

[3] = system: adriamycin-resistant subline (P388/ADR); experiment: inhibition of growth rate of adriamycin-resistant subline P388/ADR; type: cell-based, murine; conditions: P388/ADR cells, compound alone, read-out: B: IC50 for the adriamycin-resistant subline (P388/ADR)
From the text: Such cancer cells are characterized by the fact that they are resistant to a large variety of anti-tumour agents and thus become extremely and increasingly difficult to treat. The compounds of formula I, including those described in British Patent Specification No. 883013, and salts thereof lower this resistance and thus greatly increase the effectiveness of drugs conventionally used in chemotherapy. Such properties can be tested according to the method described in Br. J. […] The Table which follows sets forth for a representative number of compounds of formula I B: the IC50 for the adriamycin-resistant subline (P388/ADR); and […]

[4] = toxicity, LD50 i.p. after administration of a single dose to mice; conditions: mouse, in vivo, ip, read-out: T: toxicity, LD50
From the text: For some of these compounds, the Table also contains toxicity data ("T", LD50, mg/kg i.p. after administration of a single dose to mice).

[5] = P388/ADR cells, with adriamycin 0.2 μM, read-out: C: IC50 for P388/ADR cells, measured in the presence of a subtoxic concentration of adriamycin
[6] = P388 cells, compound alone, read-out: A: concentration for inhibiting the growth rate of P388 cells by 50% (IC50)
[7] = P388/ADR, read-out: C: IC50 for P388/ADR cells, measured in the presence of a subtoxic concentration of adriamycin, P388/ADR cells, with adriamycin 0.2 μM
[8] = P388, read-out: A: concentration for inhibiting the growth rate of P388 cells by 50% (IC50), P388 cells, compound alone

SMILES | IC50 [1, 5] | IC50 [2, 6] | IC50 ([3]; Mus musculus, P388/ADR) | IC50 [1, 7] | LD50 [4] | IC50 [2, 8] | IC50 ([3]; dihydrochloride)
CCC(C(=O)OCCN1CCN(CCOC(=O)C(CC)c2ccc(Cl)cc2)CC1)c1ccc(Cl)cc1 (centres unmarked) [Compound 1778, N,N'-bis[2-[2-(4-chlorophenyl)-2-ethylacetoxy]ethyl]piperazine dihydrochloride] | 1000 nM | 30 µM | 20 µM | – | – | – | –
CCC(C(=O)OCCN1CCN(CCC(=O)Nc2c(C)cccc2C)CC1)c1ccccc1 (centres unmarked) [Compound 1774, 3-[1-(2-Phenyl-2-ethylacetoxy)ethyl-4-piperazino]propion-2,6-dimethylanilide dihydrochloride] | – | – | > 60 µM | 1200 nM | ~200 mg/kg | > 60 µM | –
CCCC(C(=O)OCCN1CCN(CCOC(=O)C(CCC)c2ccccc2)CC1)c1ccccc1 (centres unmarked) [Compound 1838, N,N'-bis[2-(2-n-propyl-2-phenylacetoxy)ethyl]piperazine] | – | – | 20 µM | 200 nM | 200 to 400 mg/kg | 20 µM | –
Cc1cccc(C)c1NC(=O)CCN1CCN(CCOC(=O)C(c2ccccc2)c2ccccc2)CC1 [Compound 1853, 3-[1-(2-diphenylacetoxyethyl)-4-piperazino]propion-2,6-dimethylanilide dihydrochloride] | 1200 nM | 60 µM | 60 µM | – | – | – | –
CCC(C(=O)OCCN1CCN(CCOC(=O)C(CC)c2ccc(OC)c(OC)c2)CC1)c1ccc(OC)c(OC)c1.Cl.Cl (centres unmarked) [Compound 1835, N,N'-bis[2-[2-(3,4-dimethoxyphenyl)-2-ethylacetoxy]ethyl]piperazine dihydrochloride] | – | – | 120 µM | 1200 nM | ~200 mg/kg | 120 µM | –
CCC(C(=O)OCCN1CCN(CCOC(=O)C(CC)c2ccccc2C)CC1)c1ccccc1C.Cl.Cl (centres unmarked) [Compound 1776, N,N'-bis[2-[2-(2-methylphenyl)-2-ethylacetoxy]ethyl]piperazine dihydrochloride] | – | – | 30 µM | 800 nM | 200 to 400 mg/kg | 30 µM | –
O=C(OCCN1CCN(CCOC(=O)C(c2ccccc2)c2ccccc2)CC1)C(c1ccccc1)c1ccccc1 [Compound 1839, N,N'-bis(2-diphenylacetoxyethyl)piperazine] | – | – | > 60 µM | 200 nM | 200 to 400 mg/kg | > 60 µM | –
CCC(C(=O)OCCCN1CCN(CCCOC(=O)C(CC)c2ccccc2)CC1)c1ccccc1 (centres unmarked) [Compound 1843, N,N'-bis[3-(2-phenyl-2-ethylacetoxy)propyl]piperazine] | 450 nM | 7 µM | 8 µM | – | – | – | –
CC(C(=O)OCCN1CCN(CCOC(=O)C(C)(c2ccccc2)c2ccccc2)CC1)(c1ccccc1)c1ccccc1 [Compound 1854, N,N'-bis[2-(2,2-diphenyl-2-methylacetoxy)ethyl]piperazine dihydrochloride] | 200 nM | 20 µM | 45 µM | – | – | – | –
CCC(C(=O)OCCN1CCN(CCOC(=O)C(CC)c2ccc(F)cc2)CC1)c1ccc(F)cc1 (centres unmarked) [Compound 1777, N,N'-bis[2-[2-(4-fluorophenyl)-2-ethylacetoxy]ethyl]piperazine dihydrochloride] | 1200 nM | 60 µM | 60 µM | – | – | – | –
CCCCC(C(=O)OCCN1CCN(CCOC(=O)C(CCCC)c2ccc(OC)c(OC)c2)CC1)c1ccc(OC)c(OC)c1 (centres unmarked) [Compound 1849, N,N'-bis[2-[2-n-butyl-2-(3,4-dimethoxyphenyl)acetoxy]ethyl]piperazine dihydrochloride] | 200 nM | 12 µM | 10 µM | – | – | – | –
CCC(C(=O)OCCN1CCN(CCOC(=O)C(CC)c2ccccc2F)CC1)c1ccccc1F (centres unmarked) [Compound 1775, N,N'-bis[2-[2-(2-fluorophenyl)-2-ethylacetoxy]ethyl]piperazine dihydrochloride] | 1500 nM | 60 µM | 60 µM | – | – | – | –
CCC(C(=O)OCCN1CCN(CCOC(=O)C(CC)c2ccccc2Cl)CC1)c1ccccc1Cl (centres unmarked) [Compound 1779, N,N'-bis[2-[2-(2-chlorophenyl)-2-ethylacetoxy]ethyl]piperazine dihydrochloride] | 1000 nM | 60 µM | 40 µM | – | – | – | –
CCC(C(=O)OCCN1CCN(CCOC(=O)C(CC)c2ccccc2)CC1)c1ccccc1.Cl.Cl (centres unmarked) [Compound 480, N,N'-bis[2-(2-phenyl-2-ethylacetoxy)ethyl]piperazine dihydrochloride] | – | – | 60 µM | – | 100 to 200 mg/kg | – | 45 µM
CCCC(C(=O)OCCN1CCN(CCOC(=O)C(CCC)c2ccc(OC)c(OC)c2)CC1)c1ccc(OC)c(OC)c1 (centres unmarked) [Compound 1850, N,N'-bis[2-[2-(3,4-dimethoxyphenyl)-2-propylacetoxy]ethyl]piperazine dihydrochloride] | 200 nM | 20 µM | 20 µM | – | – | – | –
